{"source": "the supplement of paper PMC10307832", "test_in_all_cases": "relative viability (nuclei count vs DMSO), 5 days (fraction); higher = more cells survive", "key": {"LU99A": {"system": "LU99A", "summary_of_the_method": "(§1)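 Relative viability is defined as nuclei in treated wells over nuclei in vehicle wells. Duplicate plates were run and medians reported. Lung cancer cell lines in 1536-well plates were dosed by pin tool one day after seeding, with one drug or with a fixed anchor-drug dose plus five library-drug doses (not always all listed) in √10 steps, and nuclei were counted after 5 days.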"}, "NCI-H1395": {"system": "NCI-H1395", "summary_of_the_method": "as §1"}, "NCI-H1437": {"system": "NCI-H1437", "summary_of_the_method": "as §1"}, "NCI-H1666": {"system": "NCI-H1666", "summary_of_the_method": "as §1"}, "NCI-H1975": {"system": "NCI-H1975", "summary_of_the_method": "as §1"}, "NCI-H2085": {"system": "NCI-H2085", "summary_of_the_method": "as §1"}, "NCI-H2087": {"system": "NCI-H2087", "summary_of_the_method": "as §1"}, "NCI-H2342": {"system": "NCI-H2342", "summary_of_the_method": "as §1"}, "NCI-H358": {"system": "NCI-H358", "summary_of_the_method": "as §1"}, "NCI-H647": {"system": "NCI-H647", "summary_of_the_method": "as §1"}, "PC-3 [JPC-3]": {"system": "PC-3 [JPC-3]", "summary_of_the_method": "as §1"}, "SW 1573": {"system": "SW 1573", "summary_of_the_method": "as §1"}}}
{"smiles": "NC(=O)Nc1cc(-c2cccc(F)c2)sc1C(=O)N[C@H]1CCCNC1", "note": "[AZD7762] + COc1cccc2cc(-c3nc([C@H]4CC[C@H](C(=O)O)CC4)n4ncnc(N)c34)[nH]c12 [OSI-027] (partner 0.5 µM)", "values": [{"measurement": "relative viability", "setting": "LU99A; first compound 0.1 µM", "result": 0.352}, {"measurement": "relative viability", "setting": "LU99A; first compound 0.3162 µM", "result": 0.326}, {"measurement": "relative viability", "setting": "LU99A; first compound 1 µM", "result": 0.217}, {"measurement": "relative viability", "setting": "NCI-H1395; first compound 0.01 µM", "result": 0.727}, {"measurement": "relative viability", "setting": "NCI-H1395; first compound 0.03162 µM", "result": 0.74}, {"measurement": "relative viability", "setting": "NCI-H1395; first compound 0.1 µM", "result": 0.708}, {"measurement": "relative viability", "setting": "NCI-H1395; first compound 0.3162 µM", "result": 0.458}, {"measurement": "relative viability", "setting": "NCI-H1395; first compound 1 µM", "result": 0.363}, {"measurement": "relative viability", "setting": "NCI-H1437; first compound 0.01 µM", "result": 0.888}, {"measurement": "relative viability", "setting": "NCI-H1437; first compound 0.03162 µM", "result": 0.833}, {"measurement": "relative viability", "setting": "NCI-H1437; first compound 0.1 µM", "result": 0.974}, {"measurement": "relative viability", "setting": "NCI-H1437; first compound 0.3162 µM", "result": 0.87}, {"measurement": "relative viability", "setting": "NCI-H1437; first compound 1 µM", "result": 0.695}, {"measurement": "relative viability", "setting": "NCI-H1666; first compound 0.01 µM", "result": 0.981}, {"measurement": "relative viability", "setting": "NCI-H1666; first compound 0.03162 µM", "result": 0.921}, {"measurement": "relative viability", "setting": "NCI-H1666; first compound 0.1 µM", "result": 1.03}, {"measurement": "relative viability", "setting": "NCI-H1666; first compound 0.3162 µM", "result": 0.858}, {"measurement": "relative viability", "setting": "NCI-H1666; first compound 1 µM", "result": 0.771}, {"measurement": "relative viability", "setting": "NCI-H1975; first compound 0.01 µM", "result": 0.687}, {"measurement": "relative viability", "setting": "NCI-H1975; first compound 0.03162 µM", "result": 0.73}, {"measurement": "relative viability", "setting": "NCI-H1975; first compound 0.1 µM", "result": 0.637}, {"measurement": "relative viability", "setting": "NCI-H1975; first compound 0.3162 µM", "result": 0.615}, {"measurement": "relative viability", "setting": "NCI-H1975; first compound 1 µM", "result": 0.397}, {"measurement": "relative viability", "setting": "NCI-H2085; first compound 0.01 µM", "result": 0.603}, {"measurement": "relative viability", "setting": "NCI-H2085; first compound 0.03162 µM", "result": 0.871}, {"measurement": "relative viability", "setting": "NCI-H2085; first compound 0.1 µM", "result": 0.836}, {"measurement": "relative viability", "setting": "NCI-H2085; first compound 0.3162 µM", "result": 0.765}, {"measurement": "relative viability", "setting": "NCI-H2085; first compound 1 µM", "result": 0.554}, {"measurement": "relative viability", "setting": "NCI-H2087; first compound 0.01 µM", "result": 0.474}, {"measurement": "relative viability", "setting": "NCI-H2087; first compound 0.03162 µM", "result": 0.653}, {"measurement": "relative viability", "setting": "NCI-H2087; first compound 0.1 µM", "result": 0.681}, {"measurement": "relative viability", "setting": "NCI-H2087; first compound 0.3162 µM", "result": 0.883}, {"measurement": "relative viability", "setting": "NCI-H2087; first compound 1 µM", "result": 0.779}, {"measurement": "relative viability", "setting": "NCI-H2342; first compound 0.01 µM", "result": 0.612}, {"measurement": "relative viability", "setting": "NCI-H2342; first compound 0.03162 µM", "result": 0.714}, {"measurement": "relative viability", "setting": "NCI-H2342; first compound 0.1 µM", "result": 0.611}, {"measurement": "relative viability", "setting": "NCI-H2342; first compound 0.3162 µM", "result": 0.586}, {"measurement": "relative viability", "setting": "NCI-H2342; first compound 1 µM", "result": 0.588}, {"measurement": "relative viability", "setting": "NCI-H358; first compound 0.01 µM", "result": 0.956}, {"measurement": "relative viability", "setting": "NCI-H358; first compound 0.03162 µM", "result": 0.838}, {"measurement": "relative viability", "setting": "NCI-H358; first compound 0.1 µM", "result": 0.839}, {"measurement": "relative viability", "setting": "NCI-H358; first compound 0.3162 µM", "result": 0.75}, {"measurement": "relative viability", "setting": "NCI-H358; first compound 1 µM", "result": 0.461}, {"measurement": "relative viability", "setting": "NCI-H647; first compound 0.01 µM", "result": 0.656}, {"measurement": "relative viability", "setting": "NCI-H647; first compound 0.03162 µM", "result": 0.55}, {"measurement": "relative viability", "setting": "NCI-H647; first compound 0.1 µM", "result": 0.714}, {"measurement": "relative viability", "setting": "NCI-H647; first compound 0.3162 µM", "result": 0.6}, {"measurement": "relative viability", "setting": "NCI-H647; first compound 1 µM", "result": 0.172}, {"measurement": "relative viability", "setting": "PC-3 [JPC-3]; first compound 0.01 µM", "result": 0.714}, {"measurement": "relative viability", "setting": "PC-3 [JPC-3]; first compound 0.03162 µM", "result": 0.832}, {"measurement": "relative viability", "setting": "PC-3 [JPC-3]; first compound 0.1 µM", "result": 0.858}, {"measurement": "relative viability", "setting": "PC-3 [JPC-3]; first compound 0.3162 µM", "result": 0.751}, {"measurement": "relative viability", "setting": "PC-3 [JPC-3]; first compound 1 µM", "result": 0.684}, {"measurement": "relative viability", "setting": "SW 1573; first compound 0.01 µM", "result": 0.69}, {"measurement": "relative viability", "setting": "SW 1573; first compound 0.03162 µM", "result": 0.65}, {"measurement": "relative viability", "setting": "SW 1573; first compound 0.1 µM", "result": 0.742}, {"measurement": "relative viability", "setting": "SW 1573; first compound 0.3162 µM", "result": 0.422}, {"measurement": "relative viability", "setting": "SW 1573; first compound 1 µM", "result": 0.176}]}
